Measured values taken from patent US10544130B2, “Metallo-beta-lactamase inhibitors” (priority 2015, dated 2020).

Each compound was assayed on Pseudomonas aeruginosa PAO1 MB9798 (efflux+, IMP-1). Details: ratio MITC95 PA 9798/MITC95 PA 9799; imipenem at 2 μg/mL.
In short: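 Isogenic PAO1 pair (efflux+ MB9798, efflux− MB9799, both IMP-1) tested by microbroth MIC with fixed imipenem and/or ceftazidime, usually at CLSI breakpoint, plus fixed class A/C inhibitor against AmpC. MBL inhibitor titrated; concentration restoring susceptibility recorded and fold difference between strains taken as efflux extent.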
Work on `CC1(CN)CN(S(=O)(=O)c2ccc(-c3cccc4sc(N)nc34)c(-c3nnn[nH]3)c2S(N)(=O)=O)C1.O=C(O)C(F)(F)F` [Example 101, (1-((4-(2-aminobenzo[d]thiazol-4-yl)-2-sulfamoyl-3-(1H-tetrazol-5-yl)phenyl)sulfonyl)-3-methylazetidin-3-yl)methanaminium 2,2,2-trifluoroacetate] yielded an Efflux ratio of 1.00. `CN1CCC(CNS(=O)(=O)c2ccc(-c3cccc4sc(N)nc34)c(-c3nnn[nH]3)c2S(N)(=O)=O)C1.O=C(O)C(F)(F)F` (stereo not drawn) [Example 102, 3-((4-(2-aminobenzo[d]thiazol-4-yl)-2-sulfamoyl-3-(1H-tetrazol-5-yl)phenylsulfonamido)methyl)-1-methylpyrrolidin-1-ium 2,2,2-trifluoroacetate] showed an Efflux ratio of 0.50. For `Nc1nc2c(-c3ccc(S(=O)(=O)N[C@H]4CO[C@H]5[C@@H]4OC[C@H]5N)c(S(N)(=O)=O)c3-c3nnn[nH]3)cccc2s1.O=C(O)C(F)(F)F` [Example 103, (3R,3aR,6S,6aR)-6-(4-(2-aminobenzo[d]thiazol-4-yl)-2-sulfamoyl-3-(1H-tetrazol-5-yl)phenylsulfonamido) hexahydrofuro[3,2-b] furan-3-aminium 2,2,2-trifluoroacetate], the Efflux ratio was 2.00. Work on `NCC1CN(S(=O)(=O)c2ccc(-c3cccc4sc(N)nc34)c(-c3nnn[nH]3)c2S(N)(=O)=O)CCO1.O=C(O)C(F)(F)F` (stereo not drawn) [Example 104, (4-((4-(2-aminobenzo[d]thiazol-4-yl)-2-sulfamoyl-3-(1H-tetrazol-5-yl)phenyl)sulfonyl)morpholin-2-yl) methanaminium 2,2,2-trifluoroacetate] yielded an Efflux ratio of 2.00. In the case of `CN(C1CNC1)S(=O)(=O)c1ccc(-c2cccc3sc(N)nc23)c(-c2nnn[nH]2)c1S(N)(=O)=O.O=C(O)C(F)(F)F` [Example 105, 3-(4-(2-aminobenzo[d]thiazol-4-yl)-N-methyl-2-sulfamoyl-3-(1H-tetrazol-5-yl)phenylsulfonamido) azetidin-1-ium 2,2,2-trifluoroacetate], the Efflux ratio is reported as 1.00. For `Nc1nc2c(-c3ccc(S(=O)(=O)NCc4ccccn4)c(S(N)(=O)=O)c3-c3nnn[nH]3)cccc2s1.O=C(O)C(F)(F)F` [Example 106, 2-((4-(2-aminobenzo[d]thiazol-4-yl)-2-sulfamoyl-3-(1H-tetrazol-5-yl)phenylsulfonamido)methyl)pyridin-1-ium 2,2,2-trifluoroacetate], the Efflux ratio was 4.00. `CN1CC(N(C)S(=O)(=O)c2ccc(-c3cccc4sc(N)nc34)c(-c3nnn[nH]3)c2S(N)(=O)=O)C1.O=C(O)C(F)(F)F` [Example 107, 3-(4-(2-aminobenzo[d]thiazol-4-yl)-N-methyl-2-sulfamoyl-3-(1H-tetrazol-5-yl)phenylsulfonamido)-1-methylazetidin-1-ium 2,2,2-trifluoroacetate] was tested, and the Efflux ratio was 4.00. Work on `CO[C@H]1CNC[C@@H]1NS(=O)(=O)c1ccc(-c2cccc3sc(N)nc23)c(-c2nnn[nH]2)c1S(N)(=O)=O.O=C(O)C(F)(F)F` [Example 108, (3S,4S)-3-(4-(2-aminobenzo[d]thiazol-4-yl)-2-sulfamoyl-3-(1H-tetrazol-5-yl)phenylsulfonamido)-4-methoxypyrrolidin-1-ium 2,2,2-trifluoroacetate] yielded an Efflux ratio of 1.00. With `CC(N)CNS(=O)(=O)c1ccc(-c2cccc3sc(N)nc23)c(-c2nnn[nH]2)c1S(N)(=O)=O.O=C(O)C(F)(F)F` (stereo not drawn) [Example 109, l-(4-(2-aminobenzo[d]thiazol-4-yl)-2-sulfamoyl-3-(1H-tetrazol-5-yl)phenylsulfonamido) propan-2-aminium 2,2,2-trifluoroacetate] the Efflux ratio was 0.50. `NCC1CCCCN1S(=O)(=O)c1ccc(-c2cccc3sc(N)nc23)c(-c2nnn[nH]2)c1S(N)(=O)=O.O=C(O)C(F)(F)F` (stereo not drawn) [Example 110, (1-((4-(2-aminobenzo[d]thiazol-4-yl)-2-sulfamoyl-3-(1H-tetrazol-5-yl)phenyl)sulfonyl)piperidin-2-yl)methanaminium 2,2,2-trifluoroacetate] gave an Efflux ratio of 1.00. In the case of `Nc1nc2c(-c3ccc(S(=O)(=O)NC4C5CNCC54)c(S(N)(=O)=O)c3-c3nnn[nH]3)cccc2s1.O=C(O)C(F)(F)F` (stereo not drawn) [Example 111, 6-(4-(2-aminobenzo[d]thiazol-4-yl)-2-sulfamoyl-3-(1H-tetrazol-5-yl)phenylsulfonamido)-3-azabicyclo[3.1.0]hexan-3-ium 2,2,2-trifluoroacetate], the Efflux ratio is reported as 0.50. `Nc1nc2c(-c3ccc(S(=O)(=O)NCC4CNCCO4)c(S(N)(=O)=O)c3-c3nnn[nH]3)cccc2s1.O=C(O)C(F)(F)F` (stereo not drawn) [Example 112, 2-((4-(2-aminobenzo[d]thiazol-4-yl)-2-sulfamoyl-3-(1H-tetrazol-5-yl)phenylsulfonamido)methyl)morpholin-4-ium 2,2,2-trifluoroacetate] showed an Efflux ratio of 1.00. With `Nc1nc2c(-c3ccc(S(=O)(=O)NCC4(N)CCOCC4)c(S(N)(=O)=O)c3-c3nnn[nH]3)cccc2s1.O=CO` [Example 115, 4-((4-(2-aminobenzo[d]thiazol-4-yl)-2-sulfamoyl-3-(1H-tetrazol-5-yl)phenylsulfonamido)methyl)tetrahydro-2H-pyran-4-aminium formate] the Efflux ratio was 1.00. `CC(CN)NS(=O)(=O)c1ccc(-c2cccc3sc(N)nc23)c(-c2nnn[nH]2)c1S(N)(=O)=O.O=CO` (stereo not drawn) [Example 116, 2-(4-(2-aminobenzo[d]thiazol-4-yl)-2-sulfamoyl-3-(1H-tetrazol-5-yl)phenylsulfonamido) propan-1-aminium formate] showed an Efflux ratio of 0.50. For `Nc1nc2c(-c3ccc(S(=O)(=O)NC4C[C@@H]5CN[C@H]4C5)c(S(N)(=O)=O)c3-c3nnn[nH]3)cccc2s1.O=CO` (stereo partly drawn) [Example 119, 4-(2-aminobenzo[d]thiazol-4-yl)-N1-((1S,4R)-2-azabicyclo[2.2.1]heptan-6-yl)-3-(1H-tetrazol-5-yl)benzene-1,2-disulfonamide, formate salt], the Efflux ratio was 0.50. With `Nc1nc2c(-c3ccc(S(=O)(=O)NCC4CCNC4)c(S(N)(=O)=O)c3-c3nnn[nH]3)cccc2s1.O=CO` (stereo not drawn) [Example 120, 3-((4-(2-aminobenzo[d]thiazol-4-yl)-2-sulfamoyl-3-(1H-tetrazol-5-yl)phenylsulfonamido)methyl)pyrrolidin-1-ium formate] the Efflux ratio was 0.50. `CN(C[C@@H]1CCCN1)S(=O)(=O)c1ccc(-c2cccc3sc(N)nc23)c(-c2nnn[nH]2)c1S(N)(=O)=O.O=CO` [Example 121, (S)-2-((4-(2-aminobenzo[d]thiazol-4-yl)-N-methyl-2-sulfamoyl-3-(1H-tetrazol-5-yl)phenylsulfonamido)methyl)pyrrolidin-1-ium formate] was tested, and the Efflux ratio was 4.00. `Nc1nc2c(-c3ccc(S(=O)(=O)NCCC(N)CF)c(S(N)(=O)=O)c3-c3nnn[nH]3)cccc2s1.O=CO` (stereo not drawn) [Example 123, 4-(4-(2-aminobenzo[d]thiazol-4-yl)-2-sulfamoyl-3-(1H-tetrazol-5-yl)phenylsulfonamido)-l-fluorobutan-2-aminium formate] showed an Efflux ratio of 1.00. With `Nc1nc2c(-c3ccc(S(=O)(=O)NCCC(N)C(F)F)c(S(N)(=O)=O)c3-c3nnn[nH]3)cccc2s1.O=CO` (stereo not drawn) [Example 124, 4-(4-(2-aminobenzo[d]thiazol-4-yl)-2-sulfamoyl-3-(1H-tetrazol-5-yl)phenylsulfonamido)-1,1-difluorobutan-2-aminium formate] the Efflux ratio was 4.00. For `C[C@H](N)CNS(=O)(=O)c1ccc(-c2cccc3sc(N)nc23)c(-c2nnn[nH]2)c1S(N)(=O)=O.O=CO` [Example 127, (S)-4-(2-aminobenzo[d]thiazol-4-yl)-N1-(2-aminopropyl)-3-(1H-tetrazol-5-yl)benzene-1,2-disulfonamide, formate salt], the Efflux ratio was 1.00. In the case of `COC(=O)[C@H]1C[C@@H](NS(=O)(=O)c2ccc(-c3cccc4sc(N)nc34)c(-c3nnn[nH]3)c2S(N)(=O)=O)CN1` [Example 128, Methyl(2R,4R)-4-((4-(2-aminobenzo[d]thiazol-4-yl)-2-sulfamoyl-3-(1H-tetrazol-5-yl)phenyl)sulfonamido)pyrrolidine-2-carboxylate], the Efflux ratio is reported as 1.00. With `NS(=O)(=O)c1c(S(=O)(=O)N[C@@H]2CCNC2)ccc(-c2cccc3nc(O)[nH]c23)c1-c1nnn[nH]1` [Example 130, (R)-4-(2-hydroxy-1H-benzo[d]imidazol-7-yl)-N1-(pyrrolidin-3-yl)-3-(1H-tetrazol-5-yl)benzene-1,2-disulfonamide] the Efflux ratio was 0.50. Compound `NS(=O)(=O)c1c(S(=O)(=O)N[C@@H]2CCNC2)ccc(-c2cccc3c2OC(F)(F)O3)c1-c1nnn[nH]1` [Example 131, (R)-4-(2,2-difluorobenzo[d][1,3]dioxol-4-yl)-N1-(pyrrolidin-3-yl)-3-(1H-tetrazol-5-yl)benzene-1,2-disulfonamide] has an Efflux ratio of 16.00. With `N#Cc1cccc(-c2ccc(S(=O)(=O)N[C@@H]3CCNC3)c(S(N)(=O)=O)c2-c2nnn[nH]2)c1N` [Example 132, (R)-2′-amino-3′-cyano-N4-(pyrrolidin-3-yl)-2-(1H-tetrazol-5-yl)-[1,1′-biphenyl]-3,4-disulfonamide] the Efflux ratio was 4.00. In the case of `NS(=O)(=O)c1c(S(=O)(=O)N[C@@H]2CCNC2)ccc(-c2ccc3nonc3c2)c1-c1nnn[nH]1` [Example 133, (R)-4-(benzo[c][1,2,5]oxadiazol-5-yl)-N1-(pyrrolidin-3-yl)-3-(1H-tetrazol-5-yl)benzene-1,2-disulfonamide], the Efflux ratio is reported as 8.00. `NS(=O)(=O)c1ccc(-c2ccc(S(=O)(=O)N[C@@H]3CCNC3)c(S(N)(=O)=O)c2-c2nnn[nH]2)cc1` [Example 135, (R)-N4-(pyrrolidin-3-yl)-2-(1H-tetrazol-5-yl)-[1,1′-biphenyl]-3,4,4′-trisulfonamide] gave an Efflux ratio of 1.00. With `CS(=O)(=O)Nc1ccc(-c2ccc(S(=O)(=O)N[C@@H]3CCNC3)c(S(N)(=O)=O)c2-c2nnn[nH]2)cc1` [Example 136, (R)-4′-(methylsulfonamido)-N4-(pyrrolidin-3-yl)-2-(1H-tetrazol-5-yl)-[1,1′-biphenyl]-3,4-disulfonamide] the Efflux ratio was 2.00.
